Laboratory results from patent US20200068887A1, “TREATMENT FOR REMOVING ECTOPARASITES FROM FISH” (priority 2016, published 2020).
Several values for one entry are separate records, joined by “and”; a condition that tells them apart may be missing. Equal entries are not always repeated.

Key:
[1] = test system: L. salmonis; assay: Field well boat treatment, pre- vs post-treatment sea lice counts; type: in vivo; details: 20 ppm 60 min on well boat, within 24 hours after treatment, 30 fish per pen; pens A-D
Protocol: The effectiveness of imidacloprid against pre-adult and adult stages of L. salmonis and Caligus sp. infections on farmed Atlantic salmon was investigated by performing pre- and post-treatment sea lice counts on salmon undergoing a treatment with imidacloprid. This trial was conducted at a commercial salmon farm in Norway. The salmon were pumped onto a well boat and were exposed to 20 ppm imidacloprid for 60 minutes. The average weight of the salmon was 3.5 kg and the average number of salmon per pen was 180,000. 30 fish per pen were assessed for L. salmonis and Caligus sp., and the number of each L. salmonis life stage found was recorded. This was performed within 24 hours prior to treatment, and within 24 hours after treatment.
These assessments were made on four pens of salmon in total. Prior to treatment, fish were crowded within the pen to enable them to be pumped into the well boat, which is where the pre-treatment sea lice assessments were conducted. The post-treatment sea lice assessments were made by removing fish from the outflow pipe on the well boat.
At all time points, 3 fish were removed and placed into an anaesthetic bath. This was repeated 10 times until 30 fish had been assessed.
The numbers of sea lice observed per fish for this trial for each of the four tested pens according to sea lice life cycle state, pre- or post-administration of active are presented in Table 5.

[2] = test system: Lepeophtheirus salmonis; assay: Relative efficacy study (optimisation of treatment concentration); type: in vivo; details: for Parasite clearance: n=2, ±SEM
Protocol: 120 salmon fish (Salmo salar) were divided across five flow-through treatment tanks and acclimated for 24 hours prior to parasite challenge.
Egg strings removed from ovigerous female Lepeophtheirus salmonis were collected and cultured until infective copepodids were produced. The copepodids were then evenly distributed into five bottles containing sea water and stored at ˜10° C. overnight. In preparation for the challenge, water flows in the treatment tanks were stopped and light levels reduced. 650±20 copepodids (˜27 per host) were added to the static water and the tanks maintained in total darkness for 7 hours after which light levels were raised and the water flow resumed.
Fish were randomly divided into ten groups of ten fish and held in static ‘treatment buckets’ containing 30 L of water and high aeration as shown in Table 3.
Eight of the groups (3-10) were treated with the required concentrations of imidacloprid for 60 minutes: imidacloprid was dissolved in DMSO and added to ˜1L of tank water prior to addition to the treatment buckets. The remaining group and its replicate (1 & 2) were DMSO controls at 0.03%.
Experimental animals were monitored closely for adverse reactions and the status of the parasite infection. Where possible the time at which all parasites were thought to have detached was recorded. As treatments were performed in static systems, temperature and dissolved oxygen were regularly monitored throughout the procedure and aeration adjusted as required.
After the treatment period, the test animals were removed from the treatment solution and humanly euthanised. Each fish was weighed, measured, and its individual parasite burden assessed. The number of parasites in the treatment solution was also counted and qualitatively assessed for: sex and maturity, apparent signs of neonicotinoid poisoning, and/or potential recovery.
Logistic regression was used to compare parasite clearance after treatment with each of the concentration. Logistic regression analyses were performed using the glm function in R v.2.13.0 and assumed a binomial or quasi-binomial error distribution (determined through the comparison of the null deviance with the degrees of freedom).

[3] = test system: sea lice; assay: Comparison on isolated sea lice (in vitro bath exposure); details: 60 min exposure; for % effect / Immobilised / Live: registered approx. 20 h after end of exposure
Protocol: Both pre-adult and adult stages (mobile stages) of both sexes were used, and they were equally distributed among groups. The sea lice were exposed to imidacloprid for 60 minutes, azamethiphos for 60 minutes and deltamethrin for 30 minutes in one litre baths at a range of concentrations (Tables 6, 7 and 8). The sea lice were transferred to clean aerated seawater after treatment. The temperature of the seawater during the experiment was 12° C., but during exposure the temperature raised to approx. 14° C. in regimes exposed for 60 min. (imidacloprid and azamethiphos) and to 13° C. for the regime exposed in 30 minutes (deltamethrin).
The numbers of live and immobilised (including killed) lice in each regime were registered approximately 20 h after end of exposure. Each louse was individually investigated.

[4] = test system: pre-adult and adult sea lice; assay: Timescale of effect of imidacloprid against sea lice on killed salmon hosts; type: in vivo; details: for lice that left the host: around 12° C.
Protocol: To determine the timescale of the effect of imidacloprid, salmon infected with pre-adult and adult sea lice were removed from a stock tank and killed using a sharp blow to the head.
For fish exposed to 0 ppm imidacloprid (negative controls), observations were made for 60 minutes. […] Three fish per treatment group were tested.
Observations on the time at which lice left the host, and the sex and stage of the sea louse was noted. Any lice that left the host were transferred to clean sea water immediately. Furthermore, any lice remaining on the host at the end of the exposure period were removed from the host and transferred to clean sea water.
Lice were observed both shortly after and approximately 2 hours after the end of the exposure period.
The ratio of male to female sea lice was around 50:50. The water temperature was around 12° C.

[5] = test system: Lepeophtheirus salmonis; assay: Sea lice recovery in clean seawater after exposure; type: in vivo; details: any concentration (10-25 mg/l), post-exposure period up to 6 hours
Protocol: Imidacloprid exposed parasites from both the relative efficacy and rate determination studies (both those removed manually from their host post-treatment and those that detached during treatment) were immersed into clean seawater and observed for signs of recovery.
At the time of the first observation, exposed individuals were determined to be either dead or still active. Of those still active, muscular excitation was uncoordinated, uncontrolled and limited.

[6] = test system: Atlantic salmon; assay: Fish behaviour/appearance and mortality during bath treatment trial; type: in vivo; details: 20 ppm to 200 ppm, exposure 3 to 60 minutes
Protocol: Fish behaviour/appearance was assessed in vivo during each test. Any changes in behaviour and/or appearance including mortality were recorded.

[7] = isolated sea lice, immobilisation approx. 20 h after exposure

In the case of `O=[N+]([O-])NC1=NCCN1Cc1ccc(Cl)nc1` [imidacloprid], the “sea lice per fish, Adult Female, Post” value [1] is reported as 0.0, the “sea lice per fish, Adult Male, Post” value [1] is reported as 0.0 and the “sea lice per fish, Gravid Female, Post” value [1] is reported as 0.0. For the same compound, the “sea lice per fish, Pre-Adult Female, Post” value [1] was 0.0, the “sea lice per fish, Pre-Adult Male, Post” value [1] was 0.0 and the “sea lice per fish, Total, Post” value [1] was 0.0. For the same compound, the “parasites remaining attached to their hosts at sampling” value (from here on “parasites remaining attached”) ([2]; 10 mg/l, 60 min) was 20%, the Parasite clearance ([2]; 10 mg/l, 60 min) was 80±11% and the “parasites remaining attached” value ([2]; 15 mg/l, 60 min) was 8%. For the same compound, the Parasite clearance ([2]; 15 mg/l, 60 min) was 92±4%, the “parasites remaining attached” value ([2]; 20 mg/l, 60 min) was 8% and the Parasite clearance ([2]; 20 mg/l, 60 min) was 92±7%. The “parasites remaining attached” value ([2]; 25 mg/l, 60 min) was 3%, the Parasite clearance ([2]; 25 mg/l, 60 min) was 97±3% and the parasite infection removed ([2]; all four dosages (10, 15, 20, 25 mg/l), 60 minute treatment) was 80-100%. The “optimum concentration within the range tested” value ([2]; range 10-25 mg/l, 60 min, no significant increase in efficacy above) was 15 mg/L, the “% effect” value ([3]; imidacloprid 5 ppm) was 30% and the Immobilised ([3]; imidacloprid 5 ppm) was 3. The Live ([3]; imidacloprid 5 ppm) was 7, the “% effect” value ([3]; imidacloprid 10 ppm) was 40% and 50% and the Immobilised ([3]; imidacloprid 10 ppm) was 4 and 5. The Live ([3]; imidacloprid 10 ppm) was 6 and 5, the “% effect” value ([3]; imidacloprid 15 ppm) was 100% and the Immobilised ([3]; imidacloprid 15 ppm) was 10. For the same compound, the Live ([3]; imidacloprid 15 ppm) was 0, the “% effect” value ([3]; imidacloprid 20 ppm) was 100% and the Immobilised ([3]; imidacloprid 20 ppm) was 10. The Live ([3]; imidacloprid 20 ppm) was 0, the “% effect” value ([3]; imidacloprid 30 ppm) was 100% and the Immobilised ([3]; imidacloprid 30 ppm) was 10. For the same compound, the Live ([3]; imidacloprid 30 ppm) was 0, the “estimated EC90 value” [3, 7] was 14.4 ppm and the “estimated ECso value” [3, 7] was 7.6 ppm. For the same compound, the lice considered dead ([4]; 20 mg/L, 30 minutes post-exposure, of 49 lice) was “two”, the “signs of recovery in clean sea water” value ([4]; 20 ppm, lice exposed for 30 minutes) was “No lice exposed for 30 minutes showed signs of recovery” and the “lice deemed alive and responsive” value ([4]; 20 ppm, out of 49 lice) was “Twelve”. The lice considered dead ([4]; 50 ppm, 2 hours p.e., of 21 lice) was 14 lice, the lice considered dead ([4]; 50 ppm, at 30 minutes, of 21 lice) was “four” and the lice considered dead ([4]; 100 ppm, 2 hours p.e.) was 17/28. For the same compound, the lice considered dead ([4]; 100 ppm, end of the exposure period, of 28 lice) was “four”, the lice considered dead ([4]; 200 ppm, 2 hours post-exposure, of 26 lice) was “Six” and the lice considered dead ([4]; 200 ppm, end of the exposure period, of 26 lice) was “four”. For the same compound, the lice considered dead ([4]; 500 ppm, 30 minutes p.e., out of 20 lice) was “Six”, the lice considered dead ([4]; 500 ppm, 2 hours p.e.) was 15/20 and the “lice that left the host” value ([4]; 500 ppm, within the first 9 minutes) was “around 70%”. The “lice that left the host” value ([4]; between 20 and 200 ppm, within the first 15 minutes) was “around 50%”, the “functional recovery of exposed parasites in clean seawater” value [5] was “no clear signs of functional recovery” and the “fish mortality in the trial” value [6] was “No fish died in the trial”.
